Tests used:
Estrogen receptor = molecular target: T1, Estrogen receptor (Homo sapiens, UniProt P03372)
T1 sequence (P03372 whole entry): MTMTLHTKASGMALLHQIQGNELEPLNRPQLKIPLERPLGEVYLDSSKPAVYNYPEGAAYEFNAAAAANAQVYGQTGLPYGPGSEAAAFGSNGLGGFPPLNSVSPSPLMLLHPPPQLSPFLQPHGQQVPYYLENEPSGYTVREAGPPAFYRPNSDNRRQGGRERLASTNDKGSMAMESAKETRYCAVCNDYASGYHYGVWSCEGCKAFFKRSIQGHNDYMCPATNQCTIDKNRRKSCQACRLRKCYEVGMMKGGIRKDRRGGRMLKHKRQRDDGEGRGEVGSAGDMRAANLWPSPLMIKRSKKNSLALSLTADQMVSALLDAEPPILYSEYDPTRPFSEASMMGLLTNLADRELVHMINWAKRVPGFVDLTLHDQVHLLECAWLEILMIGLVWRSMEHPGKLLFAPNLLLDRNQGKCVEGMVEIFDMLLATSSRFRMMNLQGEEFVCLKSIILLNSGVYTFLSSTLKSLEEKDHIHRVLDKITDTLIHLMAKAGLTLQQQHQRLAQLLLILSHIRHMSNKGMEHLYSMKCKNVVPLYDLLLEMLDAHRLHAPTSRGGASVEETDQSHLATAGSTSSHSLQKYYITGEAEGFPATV

[1] = molecular target: Sodium-dependent dopamine transporter (Homo sapiens, UniProt Q01959)
Chain of Sodium-dependent dopamine transporter (Q01959 whole entry): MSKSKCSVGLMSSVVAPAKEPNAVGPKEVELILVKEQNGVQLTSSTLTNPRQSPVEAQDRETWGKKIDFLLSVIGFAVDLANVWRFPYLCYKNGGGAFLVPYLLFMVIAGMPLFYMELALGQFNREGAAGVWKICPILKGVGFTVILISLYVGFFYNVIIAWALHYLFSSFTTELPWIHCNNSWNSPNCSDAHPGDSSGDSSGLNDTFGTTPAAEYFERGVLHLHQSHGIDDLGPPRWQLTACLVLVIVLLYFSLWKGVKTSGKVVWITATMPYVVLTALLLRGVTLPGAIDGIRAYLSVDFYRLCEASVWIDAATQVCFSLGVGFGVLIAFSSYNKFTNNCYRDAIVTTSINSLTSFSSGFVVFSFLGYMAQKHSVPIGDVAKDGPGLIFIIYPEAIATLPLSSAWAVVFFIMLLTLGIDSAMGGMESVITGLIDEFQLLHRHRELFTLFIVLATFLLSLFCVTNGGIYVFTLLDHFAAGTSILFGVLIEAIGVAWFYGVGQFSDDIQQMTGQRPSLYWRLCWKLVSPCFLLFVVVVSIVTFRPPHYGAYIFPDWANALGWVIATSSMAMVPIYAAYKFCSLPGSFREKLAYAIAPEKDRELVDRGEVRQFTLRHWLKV

B2 bradykinin receptor = molecular target: T2, B2 bradykinin receptor (Homo sapiens, UniProt P30411)
T2 sequence (P30411 whole entry): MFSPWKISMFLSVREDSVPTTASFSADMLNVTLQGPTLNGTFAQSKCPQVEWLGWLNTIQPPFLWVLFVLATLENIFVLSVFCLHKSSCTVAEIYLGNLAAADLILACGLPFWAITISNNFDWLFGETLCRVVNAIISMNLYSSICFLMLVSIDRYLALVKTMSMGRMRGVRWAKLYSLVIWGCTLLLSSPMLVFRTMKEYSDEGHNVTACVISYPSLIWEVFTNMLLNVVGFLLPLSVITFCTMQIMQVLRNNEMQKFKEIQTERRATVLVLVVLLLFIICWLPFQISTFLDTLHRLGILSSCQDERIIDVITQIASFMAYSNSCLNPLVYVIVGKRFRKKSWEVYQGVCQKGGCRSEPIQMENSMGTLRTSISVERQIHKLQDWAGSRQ

[2] = molecular target: Beta-1 adrenergic receptor (Homo sapiens, UniProt P08588); assay type: functional
Chain of Beta-1 adrenergic receptor (P08588 whole entry): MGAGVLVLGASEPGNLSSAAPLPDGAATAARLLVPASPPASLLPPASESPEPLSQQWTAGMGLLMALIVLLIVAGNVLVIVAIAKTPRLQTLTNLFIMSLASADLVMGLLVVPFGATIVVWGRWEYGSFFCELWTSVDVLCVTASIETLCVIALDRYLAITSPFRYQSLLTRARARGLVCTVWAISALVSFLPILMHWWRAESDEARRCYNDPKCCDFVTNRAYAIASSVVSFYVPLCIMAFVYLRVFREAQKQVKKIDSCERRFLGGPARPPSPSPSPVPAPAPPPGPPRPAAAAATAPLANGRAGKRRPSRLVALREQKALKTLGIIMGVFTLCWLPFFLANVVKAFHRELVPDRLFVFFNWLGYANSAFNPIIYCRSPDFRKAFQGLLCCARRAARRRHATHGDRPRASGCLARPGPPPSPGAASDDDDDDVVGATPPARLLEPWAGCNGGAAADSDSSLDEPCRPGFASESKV

D(3) dopamine receptor = D(3) dopamine receptor (Homo sapiens, UniProt P35462)
Chain of D(3) dopamine receptor (P35462 whole entry): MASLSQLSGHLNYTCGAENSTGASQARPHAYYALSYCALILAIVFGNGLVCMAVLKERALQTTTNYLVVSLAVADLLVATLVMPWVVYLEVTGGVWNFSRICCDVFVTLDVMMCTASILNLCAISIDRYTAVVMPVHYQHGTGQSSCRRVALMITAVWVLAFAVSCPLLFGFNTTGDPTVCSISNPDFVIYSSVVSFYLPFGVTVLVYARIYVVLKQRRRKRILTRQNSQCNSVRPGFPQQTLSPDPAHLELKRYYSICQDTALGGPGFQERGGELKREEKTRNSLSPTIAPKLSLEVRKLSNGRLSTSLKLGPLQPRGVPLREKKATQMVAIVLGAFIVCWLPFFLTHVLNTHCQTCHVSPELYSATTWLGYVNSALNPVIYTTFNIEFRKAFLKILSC

Motilin receptor = Motilin receptor (Homo sapiens, UniProt O43193)
Chain of Motilin receptor (O43193 whole entry): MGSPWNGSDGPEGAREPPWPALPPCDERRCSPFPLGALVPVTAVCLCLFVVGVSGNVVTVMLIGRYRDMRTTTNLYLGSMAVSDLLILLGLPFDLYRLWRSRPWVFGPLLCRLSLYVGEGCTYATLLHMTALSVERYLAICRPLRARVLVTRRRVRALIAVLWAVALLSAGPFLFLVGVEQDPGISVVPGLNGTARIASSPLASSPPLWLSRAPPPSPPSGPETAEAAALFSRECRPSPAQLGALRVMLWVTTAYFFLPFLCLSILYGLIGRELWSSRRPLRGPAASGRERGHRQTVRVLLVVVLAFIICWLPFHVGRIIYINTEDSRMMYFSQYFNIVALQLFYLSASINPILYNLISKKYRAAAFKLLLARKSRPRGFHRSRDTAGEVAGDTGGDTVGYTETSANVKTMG

[3] = molecular target: Sodium-dependent noradrenaline transporter (Homo sapiens, UniProt P23975)
Chain of Sodium-dependent noradrenaline transporter (P23975 whole entry): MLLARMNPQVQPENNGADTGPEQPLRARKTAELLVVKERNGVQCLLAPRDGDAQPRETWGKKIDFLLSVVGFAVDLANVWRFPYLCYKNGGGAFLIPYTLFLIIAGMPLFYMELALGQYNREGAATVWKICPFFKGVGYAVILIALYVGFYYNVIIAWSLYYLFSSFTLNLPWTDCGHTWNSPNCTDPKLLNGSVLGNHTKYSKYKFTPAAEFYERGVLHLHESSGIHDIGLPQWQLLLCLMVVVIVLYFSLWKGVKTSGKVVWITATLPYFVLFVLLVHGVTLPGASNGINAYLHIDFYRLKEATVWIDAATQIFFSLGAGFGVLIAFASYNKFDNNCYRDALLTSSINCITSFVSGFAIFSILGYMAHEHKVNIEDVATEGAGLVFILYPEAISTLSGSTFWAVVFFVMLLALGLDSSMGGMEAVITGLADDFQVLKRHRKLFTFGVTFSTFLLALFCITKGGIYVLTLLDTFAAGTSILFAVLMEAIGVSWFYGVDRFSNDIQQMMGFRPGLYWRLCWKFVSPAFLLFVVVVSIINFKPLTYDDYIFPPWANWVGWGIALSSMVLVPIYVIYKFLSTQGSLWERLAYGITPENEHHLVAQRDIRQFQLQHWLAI

[4] = molecular target: T3, Neuropeptide Y receptor type 1 (Homo sapiens, UniProt P25929); conditions: read-out: AC50
T3 sequence (P25929 whole entry): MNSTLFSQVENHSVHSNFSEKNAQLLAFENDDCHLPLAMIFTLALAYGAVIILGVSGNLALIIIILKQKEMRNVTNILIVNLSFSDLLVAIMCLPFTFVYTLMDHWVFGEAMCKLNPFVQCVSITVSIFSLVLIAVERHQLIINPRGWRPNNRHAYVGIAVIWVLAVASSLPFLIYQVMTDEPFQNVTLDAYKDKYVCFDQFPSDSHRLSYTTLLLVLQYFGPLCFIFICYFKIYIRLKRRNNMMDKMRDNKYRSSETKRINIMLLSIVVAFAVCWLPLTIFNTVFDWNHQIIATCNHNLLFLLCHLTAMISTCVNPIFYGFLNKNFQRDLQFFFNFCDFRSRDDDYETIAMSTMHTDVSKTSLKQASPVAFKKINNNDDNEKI

Melanocortin receptor 3 = Melanocortin receptor 3 (Homo sapiens, UniProt P41968)
Chain of Melanocortin receptor 3 (P41968 whole entry): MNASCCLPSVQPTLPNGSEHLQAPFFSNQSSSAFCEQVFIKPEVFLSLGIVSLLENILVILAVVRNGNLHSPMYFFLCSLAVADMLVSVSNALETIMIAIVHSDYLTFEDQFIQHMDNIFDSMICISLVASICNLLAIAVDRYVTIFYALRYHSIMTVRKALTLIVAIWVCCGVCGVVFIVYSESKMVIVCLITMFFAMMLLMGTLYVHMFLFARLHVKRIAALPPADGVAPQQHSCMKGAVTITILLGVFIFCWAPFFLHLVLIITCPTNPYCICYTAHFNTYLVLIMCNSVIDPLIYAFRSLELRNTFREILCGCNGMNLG

[5] = molecular target: T4, Type-1 angiotensin II receptor (Homo sapiens, UniProt P30556)
T4 sequence (P30556 whole entry): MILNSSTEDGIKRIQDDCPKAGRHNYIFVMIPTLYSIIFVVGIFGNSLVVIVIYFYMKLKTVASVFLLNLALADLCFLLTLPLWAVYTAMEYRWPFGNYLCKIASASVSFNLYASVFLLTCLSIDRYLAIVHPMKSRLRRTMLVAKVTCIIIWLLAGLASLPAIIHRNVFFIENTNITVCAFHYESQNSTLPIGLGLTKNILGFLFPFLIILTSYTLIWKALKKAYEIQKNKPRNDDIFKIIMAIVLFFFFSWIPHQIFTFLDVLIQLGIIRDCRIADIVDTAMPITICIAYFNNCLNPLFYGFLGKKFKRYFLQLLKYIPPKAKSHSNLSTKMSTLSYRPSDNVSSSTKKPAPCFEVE

[6] = molecular target: Gamma-aminobutyric acid receptor subunit alpha-1 (Rattus norvegicus, UniProt P62813); assay type: functional
Chain of Gamma-aminobutyric acid receptor subunit alpha-1 (P62813 whole entry): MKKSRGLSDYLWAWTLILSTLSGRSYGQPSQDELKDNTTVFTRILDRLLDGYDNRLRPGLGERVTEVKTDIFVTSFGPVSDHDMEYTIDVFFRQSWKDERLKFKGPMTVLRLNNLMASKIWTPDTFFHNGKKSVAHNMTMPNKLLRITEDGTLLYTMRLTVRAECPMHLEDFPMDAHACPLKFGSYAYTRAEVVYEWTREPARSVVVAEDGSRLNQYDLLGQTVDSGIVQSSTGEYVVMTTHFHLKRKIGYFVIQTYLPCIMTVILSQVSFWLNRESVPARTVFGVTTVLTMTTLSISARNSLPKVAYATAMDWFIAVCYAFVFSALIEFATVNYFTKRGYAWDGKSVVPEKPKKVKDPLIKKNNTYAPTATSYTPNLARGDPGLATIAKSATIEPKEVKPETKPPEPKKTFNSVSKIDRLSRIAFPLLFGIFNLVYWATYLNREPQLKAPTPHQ

[7] = molecular target: T5, Muscarinic acetylcholine receptor M1 (Homo sapiens, UniProt P11229); assay type: functional
T5 sequence (P11229 whole entry): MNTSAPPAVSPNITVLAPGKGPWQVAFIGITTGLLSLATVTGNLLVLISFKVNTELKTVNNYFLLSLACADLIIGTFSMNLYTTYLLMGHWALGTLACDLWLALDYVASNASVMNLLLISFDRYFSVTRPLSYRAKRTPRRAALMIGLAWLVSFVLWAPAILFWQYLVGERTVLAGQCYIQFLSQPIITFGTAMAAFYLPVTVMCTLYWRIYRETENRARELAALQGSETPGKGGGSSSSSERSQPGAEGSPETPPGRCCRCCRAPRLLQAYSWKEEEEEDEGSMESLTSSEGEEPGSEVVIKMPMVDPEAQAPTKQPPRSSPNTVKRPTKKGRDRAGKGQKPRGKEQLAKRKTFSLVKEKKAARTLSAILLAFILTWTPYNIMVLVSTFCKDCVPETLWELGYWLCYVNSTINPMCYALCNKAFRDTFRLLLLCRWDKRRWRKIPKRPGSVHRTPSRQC

Histamine H1 receptor = Histamine H1 receptor (Homo sapiens, UniProt P35367)
Chain of Histamine H1 receptor (P35367 whole entry): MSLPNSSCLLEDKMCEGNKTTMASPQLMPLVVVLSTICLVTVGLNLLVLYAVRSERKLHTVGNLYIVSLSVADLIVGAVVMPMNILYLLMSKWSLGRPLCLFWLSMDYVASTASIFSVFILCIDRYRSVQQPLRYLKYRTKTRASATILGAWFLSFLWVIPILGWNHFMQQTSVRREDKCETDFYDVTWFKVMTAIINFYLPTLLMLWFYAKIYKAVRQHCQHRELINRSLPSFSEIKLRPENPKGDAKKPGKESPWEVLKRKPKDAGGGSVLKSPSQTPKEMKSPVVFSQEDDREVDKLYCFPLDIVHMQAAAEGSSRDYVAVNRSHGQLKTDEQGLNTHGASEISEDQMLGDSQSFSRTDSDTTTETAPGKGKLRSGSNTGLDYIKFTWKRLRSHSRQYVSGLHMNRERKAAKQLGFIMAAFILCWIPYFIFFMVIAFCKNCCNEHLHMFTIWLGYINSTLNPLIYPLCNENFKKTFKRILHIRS

[8] = molecular target: Muscarinic acetylcholine receptor M3 (Homo sapiens, UniProt P20309)
Chain of Muscarinic acetylcholine receptor M3 (P20309 whole entry): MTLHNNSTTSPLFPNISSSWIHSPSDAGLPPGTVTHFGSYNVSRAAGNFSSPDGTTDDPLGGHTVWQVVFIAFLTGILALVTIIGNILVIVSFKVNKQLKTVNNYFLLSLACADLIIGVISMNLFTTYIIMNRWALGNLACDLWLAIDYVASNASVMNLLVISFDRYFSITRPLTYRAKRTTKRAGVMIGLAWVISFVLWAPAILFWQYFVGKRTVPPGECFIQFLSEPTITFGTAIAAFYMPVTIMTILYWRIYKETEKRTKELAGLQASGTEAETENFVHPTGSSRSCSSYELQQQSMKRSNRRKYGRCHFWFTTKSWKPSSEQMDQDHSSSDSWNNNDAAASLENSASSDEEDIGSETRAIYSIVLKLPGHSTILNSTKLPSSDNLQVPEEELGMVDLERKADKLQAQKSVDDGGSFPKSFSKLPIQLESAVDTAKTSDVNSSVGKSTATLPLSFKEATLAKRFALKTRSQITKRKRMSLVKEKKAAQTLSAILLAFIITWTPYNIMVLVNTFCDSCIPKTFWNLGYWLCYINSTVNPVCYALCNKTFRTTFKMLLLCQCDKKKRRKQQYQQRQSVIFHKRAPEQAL

Measured: AC50
Further: assay procedure not described here.

Nc1cc(-c2ccncc2)c[nH]c1=O [INAMRINONE]
> 10 µM: [2] | Motilin receptor | [6]
not listed: [7] | Histamine H1 receptor | [8]
> 30 µM: all other assays above

COc1cc2ncnc(Nc3ccc(F)c(Cl)c3)c2cc1NC(=O)/C=C/CN1CCCCC1 [DACOMITINIB ANHYDROUS]
15 µM: [1]
14 µM: [3]
27 µM: Melanocortin receptor 3
> 30 µM: [2] | Histamine H1 receptor
11 µM: [7]

CC(=O)[C@]1(O)Cc2c(O)c3c(c(O)c2[C@@H](O[C@H]2C[C@H](N)[C@H](O)[C@H](C)O2)C1)C(=O)c1ccccc1C3=O [IDARUBICIN]
15 µM: [1]
> 10 µM: B2 bradykinin receptor | Motilin receptor | [4]
8.7 µM: [3]
17 µM: D(3) dopamine receptor
> 30 µM: [2] | [5] | [6]

O=C1CN=C(c2ccccc2)c2cc([N+](=O)[O-])ccc2N1 [NITRAZEPAM]
> 30 µM: D(3) dopamine receptor | [5]
0.022 µM: [6]
not listed: [7] | Histamine H1 receptor | [8]
> 10 µM: all other assays above

NC(=O)CN1CCCC1=O
not listed: Estrogen receptor | [7] | Histamine H1 receptor | [8]
> 30 µM: all other assays above

CCOC(=O)O[C@]1(C(=O)OCCl)CC[C@H]2[C@@H]3CCC4=CC(=O)C=C[C@]4(C)[C@H]3[C@@H](O)C[C@@]21C [LOTEPREDNOL ETABONATE]
not listed: Estrogen receptor
> 30 µM: all other assays above

O=C(O)CCNC(=O)c1ccccc1 [BETAMIPRON]
not listed: [7] | Histamine H1 receptor | [8]
> 30 µM: all other assays above

CCCCCCCCCCCCCCCCCCCCCC(=O)Nc1ccn([C@@H]2O[C@H](CO)[C@@H](O)[C@@H]2O)c(=O)n1 [ENOCITABINE]
not listed: Estrogen receptor
> 30 µM: all other assays above

Reference: ChEMBL document CHEMBL5291721, “A preclinical secondary pharmacology resource illuminates target-adverse drug reaction associations of marketed drugs” (Nat Commun, 2023)
